These molecules were tested against mGluR5 (Homo sapiens, UniProt P41594) (assay: mGluR5 positive allosteric modulator (PAM) functional assay).
Assay type: cell-based

mGluR5, sequence (P41594 21-1212): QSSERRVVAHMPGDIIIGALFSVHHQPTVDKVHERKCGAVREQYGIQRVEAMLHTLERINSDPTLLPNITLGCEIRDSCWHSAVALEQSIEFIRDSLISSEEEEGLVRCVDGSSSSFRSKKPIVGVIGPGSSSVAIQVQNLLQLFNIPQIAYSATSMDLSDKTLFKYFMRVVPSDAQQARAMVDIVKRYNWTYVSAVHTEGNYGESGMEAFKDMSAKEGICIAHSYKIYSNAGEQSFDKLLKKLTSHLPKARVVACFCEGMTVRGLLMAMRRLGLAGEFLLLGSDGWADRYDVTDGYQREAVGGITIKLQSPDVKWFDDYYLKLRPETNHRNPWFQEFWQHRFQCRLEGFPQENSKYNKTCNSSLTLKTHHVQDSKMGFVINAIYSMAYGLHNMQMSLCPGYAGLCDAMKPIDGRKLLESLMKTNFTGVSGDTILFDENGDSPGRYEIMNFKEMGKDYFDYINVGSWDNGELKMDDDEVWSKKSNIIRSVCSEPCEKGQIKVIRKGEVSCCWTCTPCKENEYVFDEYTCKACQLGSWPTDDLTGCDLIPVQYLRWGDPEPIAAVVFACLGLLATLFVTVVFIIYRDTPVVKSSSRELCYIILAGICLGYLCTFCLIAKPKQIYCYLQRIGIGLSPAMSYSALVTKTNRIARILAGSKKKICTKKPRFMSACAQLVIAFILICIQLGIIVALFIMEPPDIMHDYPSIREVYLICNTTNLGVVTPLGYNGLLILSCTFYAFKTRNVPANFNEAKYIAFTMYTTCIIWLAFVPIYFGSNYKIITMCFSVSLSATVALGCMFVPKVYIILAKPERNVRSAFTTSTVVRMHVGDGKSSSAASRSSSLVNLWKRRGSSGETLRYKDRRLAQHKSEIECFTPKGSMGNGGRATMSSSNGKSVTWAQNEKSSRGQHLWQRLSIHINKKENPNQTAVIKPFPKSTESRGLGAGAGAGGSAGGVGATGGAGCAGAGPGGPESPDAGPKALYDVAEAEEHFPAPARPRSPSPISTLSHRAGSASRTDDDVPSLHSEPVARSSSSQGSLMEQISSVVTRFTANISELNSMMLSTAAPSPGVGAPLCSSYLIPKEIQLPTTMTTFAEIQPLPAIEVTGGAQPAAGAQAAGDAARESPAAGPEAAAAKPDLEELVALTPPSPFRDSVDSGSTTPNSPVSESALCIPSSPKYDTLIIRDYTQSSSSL

Q: How did the EC50 turn out when `C[C@@H](c1nc(-c2ccc(C#Cc3cccc(F)c3)cn2)no1)N(C)C` [Compound 106, (S)-1-(3-(5-((3-fluorophenyl)ethynyl)pyridin-2-yl)-1,2,4-oxadiazol-5-yl)-N,N-dimethylethanamine] was run?
A: ≤ 30 nM

Q: `CNC(C)c1nc(-c2ccc(C#Cc3cccc(F)c3)cn2)no1` (centres unmarked) [Compound 107, 1-(3-(5-((3-fluorophenyl)ethynyl)pyridin-2-yl)-1,2,4-oxadiazol-5-yl)-N-methylethanamine] was tested. Which EC50 did it give?
A: 30 to 100 nM

Q: `CC(c1nc(-c2ccc(C#Cc3cccc(F)c3)cn2)no1)N1CCCC1` (centres unmarked) [Compound 108, 3-(5-((3-fluorophenyl)ethynyl)pyridin-2-yl)-5-(1-(pyrrolidin-1-yl)ethyl)-1,2,4-oxadiazole] was tested. Which EC50 did it give?
A: ≤ 30 nM

Q: `CC(NC1CC1)c1nc(-c2ccc(C#Cc3cccc(F)c3)cn2)no1` (centres unmarked) [Compound 109, N-(1-(3-(5-((3-fluorophenyl)ethynyl)pyridin-2-yl)-1,2,4-oxadiazol-5-yl)ethyl)cyclopropanamine] was tested. Which EC50 did it give?
A: ≤ 30 nM

Q: For `CC(C)NC(C)c1nc(-c2ccc(C#Cc3cccc(F)c3)cn2)no1` (centres unmarked) [Compound 110, N-(1-(3-(5-((3-fluorophenyl)ethynyl)pyridin-2-yl)-1,2,4-oxadiazol-5-yl)ethyl)propan-2-amine], which EC50 is on record?
A: 30 to 100 nM

Q: `CCN(CC)C(C)c1nc(-c2ccc(C#Cc3cccc(F)c3)cn2)no1` (centres unmarked) [Compound 111, N,N-diethyl-1-(3-(5-((3-fluorophenyl)ethynyl)pyridin-2-yl)-1,2,4-oxadiazol-5-yl)ethanamine] was tested. Which EC50 did it give?
A: ≤ 30 nM

Q: `CNC(C)(C)c1nc(-c2ccc(C#Cc3cccc(F)c3)cn2)no1` [Compound 112, 2-(3-(5-((3-fluorophenyl)ethynyl)pyridin-2-yl)-1,2,4-oxadiazol-5-yl)-N-methylpropan-2-amine] was tested. Which EC50 did it give?
A: ≤ 30 nM

Q: For `CN(C)C(C)(C)c1nc(-c2ccc(C#Cc3cccc(F)c3)cn2)no1` [Compound 113, 2-(3-(5-((3-fluorophenyl)ethynyl)pyridin-2-yl)-1,2,4-oxadiazol-5-yl)-N,N-dimethylpropan-2-amine], which EC50 is on record?
A: ≤ 30 nM

Q: Which EC50 does the source give for `CCC(N)c1nc(-c2ccc(C#Cc3cccc(F)c3)cn2)no1` (centres unmarked) [Compound 114, 1-(3-(5-((3-fluorophenyl)ethynyl)pyridin-2-yl)-1,2,4-oxadiazol-5-yl)propan-1-amine] here?
A: 100 to 300 nM

Q: Which EC50 does the source give for `CCC(NC)c1nc(-c2ccc(C#Cc3cccc(F)c3)cn2)no1` (centres unmarked) [Compound 115, 1-(3-(5-((3-fluorophenyl)ethynyl)pyridin-2-yl)-1,2,4-oxadiazol-5-yl)-N-methylpropan-1-amine] here?
A: 30 to 100 nM

Q: `CCC(c1nc(-c2ccc(C#Cc3cccc(F)c3)cn2)no1)N(C)C` (centres unmarked) [Compound 116, 1-(3-(5-((3-fluorophenyl)ethynyl)pyridin-2-yl)-1,2,4-oxadiazol-5-yl)-N,N-dimethylpropan-1-amine] was tested. Which EC50 did it give?
A: ≤ 30 nM

Q: For `CCC(NC1CC1)c1nc(-c2ccc(C#Cc3cccc(F)c3)cn2)no1` (centres unmarked) [Compound 117, N-(1-(3-(5-((3-fluorophenyl)ethynyl)pyridin-2-yl)-1,2,4-oxadiazol-5-yl)propyl)cyclopropanamine], which EC50 is on record?
A: ≤ 30 nM

Q: `CN(C)C1(c2nc(-c3ccc(C#Cc4cccc(F)c4)cn3)no2)CC1` [Compound 118, 1-(3-(5-((3-fluorophenyl)ethynyl)pyridin-2-yl)-1,2,4-oxadiazol-5-yl)-N,N-dimethylcyclopropanamine] was tested. Which EC50 did it give?
A: ≤ 30 nM

Q: How did the EC50 turn out when `Fc1cccc(C#Cc2ccc(-c3noc(C4CCCN4)n3)nc2)c1` (centres unmarked) [Compound 119, 3-(5-((3-fluorophenyl)ethynyl)pyridin-2-yl)-5-(pyrrolidin-2-yl)-1,2,4-oxadiazole] was run?
A: 300 to 1000 nM

Q: How did the EC50 turn out when `CC1(c2nc(-c3ccc(C#Cc4cccc(F)c4)cn3)no2)CCCN1` (centres unmarked) [Compound 122, 3-(5-((3-fluorophenyl)ethynyl)pyridin-2-yl)-5-(2-methylpyrrolidin-2-yl)-1,2,4-oxadiazole] was run?
A: 100 to 300 nM

Q: Which EC50 does the source give for `Fc1cccc(C#Cc2ccc(-c3noc(C4CCCN4CCC(F)(F)F)n3)nc2)c1` (centres unmarked) [Compound 123, 3-(5-((3-fluorophenyl)ethynyl)pyridin-2-yl)-5-(1-(3,3,3-trifluoropropyl)pyrrolidin-2-yl)-1,2,4-oxadiazole] here?
A: ≤ 30 nM

Q: For `C#CCN1CCCC1c1nc(-c2ccc(C#Cc3cccc(F)c3)cn2)no1` (centres unmarked) [Compound 124, 3-(5-((3-fluorophenyl)ethynyl)pyridin-2-yl)-5-(1-(prop-2-yn-1-yl)pyrrolidin-2-yl)-1,2,4-oxadiazole], which EC50 is on record?
A: ≤ 30 nM

Q: Which EC50 does the source give for `N#CCN1CCCC1c1nc(-c2ccc(C#Cc3cccc(F)c3)cn2)no1` (centres unmarked) [Compound 125, 2-(2-(3-(5-((3-fluorophenyl)ethynyl)pyridin-2-yl)-1,2,4-oxadiazol-5-yl)pyrrolidin-1-yl)acetonitrile] here?
A: 30 to 100 nM

Q: How did the EC50 turn out when `Fc1cccc(C#Cc2ccc(-c3noc(C4CCCN4C4CCC4)n3)nc2)c1` (centres unmarked) [Compound 126, 5-(1-cyclobutylpyrrolidin-2-yl)-3-(5-((3-fluorophenyl)ethynyl)pyridin-2-yl)-1,2,4-oxadiazole] was run?
A: 30 to 100 nM

Q: How did the EC50 turn out when `C=C1CN[C@H](c2nc(-c3ccc(C#Cc4cccc(F)c4)cn3)no2)C1` [Compound 127, (S)-3-(5-((3-fluorophenyl)ethynyl)pyridin-2-yl)-5-(4-methylenepyrrolidin-2-yl)-1,2,4-oxadiazole] was run?
A: 100 to 300 nM

Q: How did the EC50 turn out when `O[C@H]1CN[C@H](c2nc(-c3ccc(C#Cc4cccc(F)c4)cn3)no2)C1` [Compound 129, (3R,5S)-5-(3-(5-((3-fluorophenyl)ethynyl)pyridin-2-yl)-1,2,4-oxadiazol-5-yl)pyrrolidin-3-ol] was run?
A: 300 to 1000 nM

Q: Which EC50 does the source give for `CN1C[C@H](O)C[C@H]1c1nc(-c2ccc(C#Cc3cccc(F)c3)cn2)no1` [Compound 130, (3R,5S)-5-(3-(5-((3-fluorophenyl)ethynyl)pyridin-2-yl)-1,2,4-oxadiazol-5-yl)-1-methylpyrrolidin-3-ol] here?
A: 30 to 100 nM

Q: How did the EC50 turn out when `CN1C[C@H](O)C[C@@H]1c1nc(-c2ccc(C#Cc3cccc(F)c3)cn2)no1` [Compound 132, (3R,5R)-5-(3-(5-((3-fluorophenyl)ethynyl)pyridin-2-yl)-1,2,4-oxadiazol-5-yl)-1-methylpyrrolidin-3-ol] was run?
A: 100 to 300 nM

Q: Which EC50 does the source give for `CO[C@H]1CN[C@@H](c2nc(-c3ccc(C#Cc4cccc(F)c4)cn3)no2)C1` [Compound 133, 3-(5-((3-fluorophenyl)ethynyl)pyridin-2-yl)-5-((2R,4R)-4-methoxypyrrolidin-2-yl)-1,2,4-oxadiazole] here?
A: 30 to 100 nM

Q: Which EC50 does the source give for `CCC(C)c1nc(-c2ccc(C#Cc3ccccn3)cn2)no1` (centres unmarked) [Compound 134, 5-(sec-butyl)-3-(5-(pyridin-2-ylethynyl)pyridin-2-yl)-1,2,4-oxadiazole] here?
A: 30 to 100 nM

Q: For `CCC(CC)c1nc(-c2ccc(C#Cc3ccccn3)cn2)no1` [Compound 136, 5-(pentan-3-yl)-3-(5-(pyridin-2-ylethynyl)pyridin-2-yl)-1,2,4-oxadiazole], which EC50 is on record?
A: ≤ 30 nM

Q: Which EC50 does the source give for `C(#Cc1ccccn1)c1ccc(-c2noc(C3CCCC3)n2)nc1` [Compound 137, 5-cyclopentyl-3-(5-(pyridin-2-ylethynyl)pyridin-2-yl)-1,2,4-oxadiazole] here?
A: 30 to 100 nM

Q: Which EC50 does the source give for `CCC(OC)c1nc(-c2ccc(C#Cc3ccccn3)cn2)no1` (centres unmarked) [Compound 138, 5-(1-methoxypropyl)-3-(5-(pyridin-2-ylethynyl)pyridin-2-yl)-1,2,4-oxadiazole] here?
A: 100 to 300 nM

Q: Which EC50 does the source give for `CC(c1nc(-c2ccc(C#Cc3ccccn3)cn2)no1)N1CCCC1(C)C` (centres unmarked) [Compound 139, 5-(1-(2,2-dimethylpyrrolidin-1-yl)ethyl)-3-(5-(pyridin-2-ylethynyl)pyridin-2-yl)-1,2,4-oxadiazole] here?
A: 30 to 100 nM

Reference: US10533000B2, “Metabotrophic glutamate receptor 5 modulators and methods of use thereof” (Sunovion Pharmaceuticals, Inc., priority 2011, dated 2020)
